How the values were obtained:
[1] = tested on: Mice with donor skin graft; assay: Skin grafting after tolerogenic treatment (TLI, donor bone marrow cells, tyrphostin, cyclophosphamide); format: in vivo; design: Survivors after 50 days / Survivors after 50 days (%) / Survivors after 100 days / Survivors after 100 days (%): dose or concentration left out as unconfirmed
[2] = tested on: Human PBMC incubated with MHC-mismatched PBMC; assay: One-way mixed lymphocyte reaction (primary MLR), [3H]TdR uptake; format: cell-based; conditions: for % response (alloreactive relative response, cpm with/without tyrphostin x100): FIG. 2, response without tyrphostin = 100%; for cpm: no tyrphostin 10,734 cpm
Experimental: Cell sources: Human peripheral blood mononuclear cells (PBMC) were obtained from healthy human donors after separation on Ficoll-Paque density gradient essentially as described in Boyum, A. Scand. J Lab. Invest. […] Reagents:
One-way mixed lymphocyte reaction (MLR assay): Responding cells derived from donor A (5×10^4) were cultured in round-bottom microwell plates with an equal number (5×10^4) of irradiated (6000 cGy) donor B PBMC with and without tyrphostins. […] During the last 18 hours of incubation, cultures were pulsed with 2 μCi of [^3H] TdR.
(§1) Harvesting and radioactivity determination: Harvesting was carried out by a multiple-sample cell harvester and radioactivity, expressed in counts per minutes (cpm), was determined in a liquid scintillation β-counter.
Human PBMC were incubated either with autologous or with MHC-mismatched PBMC in a one-way MLR assay, with and without various concentrations of tyrphostins, as is described hereinabove.
In this case, the alloreactive response without the tyrphostins was considered as 100% response. Percentage of response was calculated according to the following formula: b/a×100; where a=cpm in cultures without tyrphostin, b=cpm in cultures with tyrphostin.

[3] = tested on: Human PBMC stimulated with phytohemagglutinin (PHA); assay: Primary mitogenic response assay (PHA), [3H]TdR uptake; format: cell-based; conditions: Table 6, tyrphostin 20 μM
Experimental: Mitogens: Phytohemagglutinin (PHA) and concanavalin A (Con-A) were dissolved in saline and diluted to their final concentration in culture medium. Anti-CD3 (OK3 stock solution 1 μg/ml) was diluted to 0.2 μg/ml final concentration in culture medium.
Responding PBMC cells (10^5) derived from donor A were cultured in flat-bottom microwell plates with and without tyrphostins, and with phytohemagglutinin (PHA) 1 μg/ml, or concanavalin A 18 μg/ml. […] During the last 18 hours of incubation, cultures were pulsed with 1 μCi of [^3H] TdR.
as §1

[4] = tested on: donor A anti-donor B-primed human PBMC vs donor B PBMC; assay: Secondary MLR of alloantigen-primed PBMC against priming donor B; format: cell-based; conditions: then removed, priming without tyrphostin = 100%
Experimental: (§2) PBMC from donor A (10×10^6) were stimulated with equal number of irradiated (6000 cGy) donor B PBMC, with and without tyrphostins, in a total volume of 20 ml culture medium supplemented with 10% heat inactivated human AB^+ serum (mixed lymphocyte culture, MLC). Cultures were placed vertically in 25 cm tissue culture flasks in a 5% CO2, humidified incubator at 37° C. After 10 days, cells were washed twice to remove the tyrphostin, and tested for their ability to respond in the MLR and the primary mitogenic response assay described hereinabove.
(§3) The alloreactivity of donor A anti-donor B-primed cells (5×10^4) was tested in a 6-day one-way primary MLR assay against third party unrelated donor C PBMC (10^5), or against donor A cells (background control). Cultures were placed in round-bottom microwell plates. On day 5, cultures were pulsed with 2 μCi [^3H] TdR/well for 16-18 hours and then harvested. […] After 48 hours at 37° C. in a 5% CO2 humidified incubator, cultures were pulsed with 2 μCi [^3H] TdR for another 16-18 hours and then harvested.
as §1
(§4) […] After 10 days the tyrphostin was removed and the primed cells were tested for their ability to respond in a secondary MLR assay against the priming (donor B) alloantigens, in a primary MLR assay against third party unrelated alloantigens (donor C), and to non-specific stimulation in a mitogenic assay. […] Percentage of response was calculated according to the formula described above.

[5] = tested on: donor A anti-donor B-primed human PBMC vs third party unrelated donor C PBMC; assay: Primary MLR of alloantigen-primed PBMC against third party unrelated donor C; format: cell-based; conditions: then removed, priming without tyrphostin = 100%
Experimental: as §2, §3, §1, §4

[6] = tested on: donor A anti-donor B-primed human PBMC stimulated with PHA; assay: Mitogenic response (PHA) of alloantigen-primed PBMC; format: cell-based; conditions: then removed, priming without tyrphostin = 100%
Experimental: as §2
Cultures were incubated for 48 hours in a total volume of 0.2 ml culture medium supplemented with 10% heat-inactivated human AB^+ serum at 37° C. in a 5% CO2 humidified incubator, pulsed for 16-18 hours with 1 μCi [^3H]TdR/well, and then harvested.
as §1, §4

[7] = primed 10 days with tyrphostin 25 μM
[8] = primed 10 days with tyrphostin 50 μM

## O=P1(N(CCCl)CCCl)NCCCO1 (centres unmarked) [cyclophosphamide, reference compound]
[1]; mouse, in vivo, 100 mg/kg
  effectiveness of sub-optimal dose by itself: ineffective

## N#CC(=Cc1ccc(O)c(O)c1)C(=O)NCc1ccccc1 [Tyr 1, N-benzyl-2-cyano-3-(3,4-dihydroxyphenyl)-acrylamide]
[2]; primary MLR, tyrphostin 10 μM
  % response (alloreactive relative response, cpm with/without tyrphostin x100): 40%
[2]; primary MLR, tyrphostin 50 μM
  % response (alloreactive relative response, cpm with/without tyrphostin x100): 4%
[2]; Homo sapiens, PBMC, 144 h, Table 2, primary MLR, tyrphostin 25 μM
  inhibition at 25 µM: 77%
[2]; Homo sapiens, PBMC, 144 h, Table 2, primary MLR, tyrphostin 50 μM
  inhibition at 50 µM: 89%
[2]; Homo sapiens, PBMC, Table 5, some values marked (mean), read-out: IC 50% (inhibition of Primary MLR)
  IC50: 45 µM
[2]; Table 2, primary MLR, tyrphostin 25 μM
  cpm: 2,420 cpm
[2]; Table 2, primary MLR, tyrphostin 50 μM
  cpm: 1,132 cpm
[3]; Homo sapiens, PBMC, 96 h, mitogenic response
  inhibition at 20 µM: 60%
[3]; PHA without tyrphostin 14,959±644, medium 155±37
  cpm ± SD: 6,023 ± 876 cpm
[4]; [7]
  % Response to primary stimulator: 22 ± 14%
[4]; [8]
  % Response to primary stimulator: 19 ± 10%
[5]; [7]
  % Response to unrelated stimulator: 99 ± 29^ %
[5]; [8]
  % Response to unrelated stimulator: 175 ± 77%
[6]; [7]
  % Response to PHA: 290 ± 111^ %
[6]; [8]
  % Response to PHA: 176 ± 50%
[1]; mice, s.c.
  Survivors after 50 days (%): (20%)
  Survivors after 100 days (%): (20%)
[1]; mice, s.c., survivors/total
  Survivors after 50 days: 1/5
  Survivors after 100 days: 1/5
